In ChEMBL document CHEMBL4229421 (Bioorg Med Chem Lett, 2018):

Tests used:
MDA-MB-231 = test: Antiproliferative activity against human MDA-MB-231 cells; type: functional, cell-based
HCT-116 = test: Antiproliferative activity against human HCT116 cells; type: functional, cell-based
PC-3 = test: Antiproliferative activity against human PC3 cells; type: functional, cell-based
MCF7 = test: Antiproliferative activity against human MCF7 cells; type: functional, cell-based
Histone deacetylase 1 = Histone deacetylase 1 (Homo sapiens, UniProt Q13547); test: Inhibition of human HDAC1 using p53 (379 to 382 residues) derived fluorogenic peptide RHKKAc as substrate
[1] = molecular target: T1, Protein deacetylase HDAC6 (Homo sapiens, UniProt Q9UBN7); test: Inhibition of human HDAC6 using p53 (379 to 382 residues) derived fluorogenic peptide RHKKAc as substrate
T1 sequence (Q9UBN7 whole entry): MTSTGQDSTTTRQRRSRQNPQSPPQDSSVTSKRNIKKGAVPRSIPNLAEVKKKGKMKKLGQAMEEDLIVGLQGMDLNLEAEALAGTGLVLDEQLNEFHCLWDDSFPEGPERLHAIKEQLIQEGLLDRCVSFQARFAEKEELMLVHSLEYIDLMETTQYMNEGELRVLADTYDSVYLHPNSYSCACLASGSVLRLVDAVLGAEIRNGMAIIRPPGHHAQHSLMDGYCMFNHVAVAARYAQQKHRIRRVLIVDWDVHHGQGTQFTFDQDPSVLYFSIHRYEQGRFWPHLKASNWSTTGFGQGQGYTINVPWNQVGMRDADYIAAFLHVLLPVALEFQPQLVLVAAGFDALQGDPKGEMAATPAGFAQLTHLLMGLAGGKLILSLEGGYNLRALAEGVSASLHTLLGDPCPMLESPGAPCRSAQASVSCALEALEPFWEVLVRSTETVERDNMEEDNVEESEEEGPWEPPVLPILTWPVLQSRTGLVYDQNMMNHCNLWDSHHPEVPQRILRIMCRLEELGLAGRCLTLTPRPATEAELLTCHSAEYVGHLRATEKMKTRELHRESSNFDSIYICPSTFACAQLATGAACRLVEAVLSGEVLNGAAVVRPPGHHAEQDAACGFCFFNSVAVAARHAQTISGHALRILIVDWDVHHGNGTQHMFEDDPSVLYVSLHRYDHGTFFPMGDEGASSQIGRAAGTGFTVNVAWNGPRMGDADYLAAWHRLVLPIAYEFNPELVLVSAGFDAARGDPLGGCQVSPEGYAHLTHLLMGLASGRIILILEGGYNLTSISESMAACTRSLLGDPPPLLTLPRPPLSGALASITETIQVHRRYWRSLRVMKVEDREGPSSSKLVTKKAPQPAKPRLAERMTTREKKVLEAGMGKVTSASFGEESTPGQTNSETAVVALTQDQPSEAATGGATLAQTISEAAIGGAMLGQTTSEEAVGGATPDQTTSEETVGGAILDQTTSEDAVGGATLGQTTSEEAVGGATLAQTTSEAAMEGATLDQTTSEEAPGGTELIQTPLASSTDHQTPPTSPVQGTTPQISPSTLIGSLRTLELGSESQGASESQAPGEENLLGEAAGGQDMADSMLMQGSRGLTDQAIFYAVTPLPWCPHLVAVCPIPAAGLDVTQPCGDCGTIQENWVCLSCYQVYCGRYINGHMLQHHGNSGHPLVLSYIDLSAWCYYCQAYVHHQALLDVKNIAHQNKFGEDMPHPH

[2] = molecular target: Tyrosine-protein kinase JAK2 (Homo sapiens, UniProt O60674); test: Inhibition of human JAK2 using poly[Glu:Tyr] (4:1) as substrate in presence of [gamma-33P]ATP
Homo sapiens = organism: Homo sapiens; test: Selectivity ratio of IC50 for human HDAC6 to IC50 for human HDAC1

Chain of Histone deacetylase 1 (Q13547 whole entry, the tested form may be a part): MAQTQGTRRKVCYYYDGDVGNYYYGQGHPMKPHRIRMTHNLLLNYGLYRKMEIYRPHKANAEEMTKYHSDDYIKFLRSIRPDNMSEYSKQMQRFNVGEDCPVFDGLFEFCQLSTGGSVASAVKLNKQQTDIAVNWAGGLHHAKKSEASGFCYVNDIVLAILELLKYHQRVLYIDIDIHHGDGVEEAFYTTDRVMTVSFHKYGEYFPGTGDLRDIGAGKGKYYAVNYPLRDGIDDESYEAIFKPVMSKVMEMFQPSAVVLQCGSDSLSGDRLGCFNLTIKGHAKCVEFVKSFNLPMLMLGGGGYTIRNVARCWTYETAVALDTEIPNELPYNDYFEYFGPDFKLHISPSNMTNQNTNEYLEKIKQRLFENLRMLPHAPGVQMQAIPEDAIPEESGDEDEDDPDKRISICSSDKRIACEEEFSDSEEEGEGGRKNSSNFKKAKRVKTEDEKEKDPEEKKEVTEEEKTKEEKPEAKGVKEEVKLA
Chain of Tyrosine-protein kinase JAK2 (O60674 whole entry): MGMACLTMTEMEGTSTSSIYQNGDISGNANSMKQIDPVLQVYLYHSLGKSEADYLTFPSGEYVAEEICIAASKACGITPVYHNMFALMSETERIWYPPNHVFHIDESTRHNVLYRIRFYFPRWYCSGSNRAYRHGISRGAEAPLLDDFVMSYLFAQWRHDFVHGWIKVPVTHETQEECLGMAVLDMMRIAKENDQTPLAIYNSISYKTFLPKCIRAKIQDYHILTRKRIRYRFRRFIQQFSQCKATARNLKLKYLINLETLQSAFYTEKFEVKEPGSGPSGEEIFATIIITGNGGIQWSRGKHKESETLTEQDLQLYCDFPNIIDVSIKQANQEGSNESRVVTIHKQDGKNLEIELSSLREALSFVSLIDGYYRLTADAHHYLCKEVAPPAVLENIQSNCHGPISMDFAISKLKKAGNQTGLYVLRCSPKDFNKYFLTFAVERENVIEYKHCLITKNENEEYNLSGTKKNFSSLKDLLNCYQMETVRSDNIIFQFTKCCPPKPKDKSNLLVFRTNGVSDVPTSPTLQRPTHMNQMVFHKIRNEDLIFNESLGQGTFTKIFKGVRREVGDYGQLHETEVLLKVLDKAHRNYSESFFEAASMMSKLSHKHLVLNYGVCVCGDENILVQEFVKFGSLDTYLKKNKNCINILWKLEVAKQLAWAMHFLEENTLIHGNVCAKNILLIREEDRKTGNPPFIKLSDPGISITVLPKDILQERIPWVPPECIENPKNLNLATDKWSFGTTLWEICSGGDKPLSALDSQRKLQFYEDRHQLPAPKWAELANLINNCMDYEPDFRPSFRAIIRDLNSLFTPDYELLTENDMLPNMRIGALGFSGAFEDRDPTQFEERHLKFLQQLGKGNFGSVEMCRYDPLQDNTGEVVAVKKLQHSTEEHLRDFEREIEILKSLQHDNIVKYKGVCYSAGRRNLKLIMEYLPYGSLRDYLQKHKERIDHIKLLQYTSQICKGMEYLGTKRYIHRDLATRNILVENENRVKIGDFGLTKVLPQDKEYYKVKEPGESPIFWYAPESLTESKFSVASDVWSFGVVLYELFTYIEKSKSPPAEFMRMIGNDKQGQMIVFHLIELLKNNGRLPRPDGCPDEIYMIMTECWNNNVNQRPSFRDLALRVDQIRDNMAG

IC50 (MDA-MB-231) [nM] | IC50 (HCT-116) [nM] | IC50 (PC-3) [nM] | IC50 (MCF7) [nM] | IC50 (Histone deacetylase 1) [nM] | IC50 [1] [nM] | IC50 [2] [nM] | Ratio IC50 (Homo sapiens) | SMILES
13300 | 9400 | 35000 | 12200 | 63 | 2.1 | 2.3 | – | COCCn1cc(-c2nc(Nc3ccc(NC(=O)CCCCCCC(=O)NO)cc3)nc3[nH]ccc23)cn1
7400 | 4100 | 7700 | 4500 | 83 | 0.25 | 0.041 | > 300 | C=CCCn1cc(-c2nc(Nc3ccc(NC(=O)CCCCCCC(=O)NO)cc3)nc3[nH]ccc23)cn1
> 100000 | > 100000 | > 100000 | > 100000 | 101 | 2.3 | 7.7 | – | CS(=O)(=O)CCn1cc(-c2nc(Nc3ccc(NC(=O)CCCCCCC(=O)NO)cc3)nc3[nH]ccc23)cn1
– | – | – | – | 45 | 0.85 | – | – | N#CCCn1cc(-c2nc(Nc3ccc(NC(=O)CCCCCCC(=O)NO)cc3)nc3[nH]ccc23)cn1
– | – | – | – | 2710 | 9.6 | 3 | 300 | O=C(CCCCCCC(=O)Nc1ccc(Nc2nc(-c3cnn(CC4CCCC4)c3)c3cc[nH]c3n2)cc1)NO
9100 | 6500 | 13400 | 8200 | 44 | 1.6 | 0.15 | – | CCCn1cc(-c2nc(Nc3ccc(NC(=O)CCCCCCC(=O)NO)cc3)nc3[nH]ccc23)cn1
11800 | 14400 | 20100 | 15600 | 2 | 0.2 | 0.96 | – | O=C(CCCCCCC(=O)Nc1ccc(Nc2nc(-c3cn[nH]c3)c3cc[nH]c3n2)cc1)NO

Second part, the compound before the results:

SMILES | IC50 (MDA-MB-231) [nM] | IC50 (HCT-116) [nM] | IC50 (PC-3) [nM] | IC50 (MCF7) [nM] | IC50 (Histone deacetylase 1) [nM] | IC50 [1] [nM] | IC50 [2] [nM] | Ratio IC50 (Homo sapiens)
O=C(CCCCCCOc1ccc2cc1COC/C=C/COCc1cccc(c1)-c1ccnc(n1)N2)NO | > 10000 | > 10000 | > 10000 | > 10000 | – | – | – | –
O=C(CCCCCCC(=O)Nc1ccc(Nc2nc(-c3cnn(CCCCCCOc4ccccc4)c3)c3cc[nH]c3n2)cc1)NO | – | – | – | – | 2000 | 15.8 | 19 | –
N#CC[C@H](C1CCCC1)n1cc(-c2ncnc3[nH]ccc23)cn1 [RUXOLITINIB] | – | > 10000 | – | – | – | – | – | –
O=C(CCCCCCC(=O)Nc1ccc(Nc2nc(-c3cnn(CCCCCOc4ccccc4)c3)c3cc[nH]c3n2)cc1)NO | – | – | – | – | 1320 | 5.2 | 21 | –
O=C(CCCCCCC(=O)Nc1ccc(Nc2nc(-c3cnn(CCCCOc4ccccc4)c3)c3cc[nH]c3n2)cc1)NO | – | – | – | – | 1720 | 7 | 40 | –
